Laboratory results: patent US8022089B2, “Isoxazoline-substituted benzamide compound and pesticide” (Nissan Chemical Industries, Ltd., priority 2004, dated 2011)

With `CNc1cc(C2=NOC(c3cc(Cl)cc(Cl)c3)(C(F)(F)F)C2)ccc1C(=O)NCC(F)(F)F` (stereo not shown) the melting point was 156 to 158 °C.
